Measured values taken from paper doi:10.1101/2025.09.18.676322v1 (bioRxiv, 2025).
Residues, ends and D or L forms follow the SMILES beside them.

How the values were obtained:
[1] = Stability in simulated gastric fluid; format: in vitro ADME; settings: pH 1.6
[2] = LogD7.4 by miniaturized shake-flask procedure; format: physicochemical; settings: miniaturized shake-flask procedure at pH 7.4
[3] = Stability in human plasma; format: in vitro ADME
TREM2 = biological target: T1, TREM2 (Homo sapiens, UniProt Q9NZC2); assay: Spectral shift assay of TREM2 binding; settings: for TREM2 binding in spectral shift analysis (in words): labeled TREM2 10 nM, PBST pH 7.4, 10 min at room temperature
T1 sequence (Q9NZC2 19-174 limits assumed): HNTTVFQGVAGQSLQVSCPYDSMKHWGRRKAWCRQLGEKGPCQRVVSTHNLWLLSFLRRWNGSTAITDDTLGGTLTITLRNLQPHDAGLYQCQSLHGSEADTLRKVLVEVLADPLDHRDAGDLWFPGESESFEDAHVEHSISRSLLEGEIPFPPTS

[4] = Stability in rat liver microsomes; format: in vitro ADME
[5] = Stability in simulated intestinal fluid; format: in vitro ADME; settings: pH 6.5
Caco-2 cell permeability = format: in vitro ADME
[6] = reference compound of the assay; cited from earlier work
[7] = reference compound of the assay; cited from earlier work; remark: listed apart in the source

Compound: CC(C)[C@@H]1NC(=O)CNC(=O)[C@H](C)NC(=O)[C@H](CO)NC(=O)[C@H](C(C)C)NC(=O)[C@H](CO)NC(=O)[C@H](C(C)C)NC(=O)[C@H](C)NC(=O)CNC(=O)[C@H](CC(=O)O)NC(=O)[C@H](CCCCN)NC(=O)[C@H](CCC(=O)O)NC(=O)[C@H]([C@@H](C)O)NC(=O)[C@H]([C@@H](C)O)NC1=O [TP4] (cyclo(AGVTTEKDGAVSVS); ring closure inferred)
- half-life [1]: 55.8 min
- LogD7.4 [2]: 1.03
- remaining at 1 h [3]: 83.1%
- TREM2 binding in spectral shift analysis (in words) (TREM2): measurable responses
- equilibrium dissociation constant (Kd), in words (TREM2; summary statement in the introduction, assay not named): sub-millimolar range
- half-life [4]: 236 min
- half-life [5]: 349 min
- Papp A→B (Caco-2 cell permeability): 1.32 ×10⁻⁶ cm/s
- Papp B→A (Caco-2 cell permeability): 2.47 ×10⁻⁶ cm/s

Compound: CC[C@H]1OC(=O)[C@H](C)[C@@H](O[C@H]2C[C@@](C)(OC)[C@@H](O)[C@H](C)O2)[C@H](C)[C@@H](O[C@@H]2O[C@H](C)C[C@H](N(C)C)[C@H]2O)[C@](C)(O)C[C@@H](C)C(=O)[C@H](C)[C@@H](O)[C@]1(C)O [erythromycin]
- Stability in intestinal simulated fluids, t1/2 [6]: 453 min

Compound: CC(C)[N+](C)(CCOC(=O)C1c2ccccc2Oc2ccccc21)C(C)C [propantheline]
- Human plasma stability, t1/2 [7]: 2.6 min

Compound: cyclo(GNSVNVETGARL) [TP1]
- TREM2 binding in spectral shift analysis (in words) (TREM2): measurable responses

Compound: cyclo(GSSVNVQTGEVL) [TP2]
- TREM2 binding in spectral shift analysis (in words) (TREM2): measurable responses

Compound: cyclo(LPGRLVSLPDGRHLC) [TP3]
- TREM2 binding in spectral shift analysis (in words) (TREM2): did not exhibit detectable binding
